Data from US20190389841A1, “COMPOUNDS FOR TREATMENT OF TRIPLE NEGATIVE BREAST CANCER AND OVARIAN CANCER” (UNIVERSITY OF TENNESSEE RESEARCH FOUNDATION, priority 2018, published 2019).
Read-outs that look alike come from different tables or passages of the source. Each block holds one compound with its values, some of them ahead of it.

How the values were obtained:
[1] = test system: paclitaxel resistant PC-3 cells; test: In vitro cytotoxicity after 96 hours; assay type: cell-based
[2] = test system: PC-3/TxR tumors; test: Paclitaxel resistant prostate cancer xenograft; conditions: in vivo
[3] = Brain penetration; assay type: in vivo
[4] = test system: MDA-MB-231 cells; test: Experimental lung metastasis model (tail vein); conditions: 10 mg/kg, 22 days of treatment
[5] = test system: MDA-MB-468; test: Colony formation assay; assay type: cell-based, human; conditions: 8 nM, MDA-MB-468 cells
Description: (§1) Colony formation assay. […] The medium of each group was renewed once a week. […] The morphology of colonies was captured under a microscope and colony area was quantified using ImageJ software (NIH, Bethesda, Md.). The drug treatment was performed in triplicate.

[6] = test system: MDA-MB-231; test: Colony formation assay; assay type: cell-based, human; conditions: 8 nM
Description: as §1

[7] = test system: MDA-MB-231 xenografts; test: Orthotopic TNBC xenograft model, 18 days
[8] = test system: MDA-MB-468; test: cells; conditions: Homo sapiens
[9] = test system: TNBC spontaneous lung metastasis; test: Spontaneous lung metastasis in orthotopic TNBC model; assay type: in vivo, mice; conditions: 12.5 mg/kg
[10] = test system: MDA-MB-231 cells; test: Scratch assay (cell migration); assay type: cell-based, human; conditions: 16 nM
Description: Cell migration was also analyzed by the scratch assay. […] The following day, a scratch was made in the cell monolayer by using a sterile 200-μl pipette tip. […] After 12 h, 24 h and 48 h, the wound width was determined and imaged with Evos Fl Imaging System (Life Technologies, Carlsbad, Calif.). The extent of wound closure was shown as the percentage of decrease of the original scratch width at each measured time point. Experiments were done in triplicate.

[11] = test system: MDA-MB-231 xenograft tumors; test: H&E and IHC analysis of orthotopic TNBC tumors; assay type: in vivo, NSG mice; conditions: 12.5 mg/kg
[12] = after 48 hours, MDA-MB-231 as printed

SMILES: CC(=O)O[C@@]12CO[C@@H]1C[C@H](O)[C@@]1(C)C(=O)[C@H](O)C3=C(C)[C@@H](OC(=O)[C@H](O)[C@@H](NC(=O)OC(C)(C)C)c4ccccc4)C[C@@](O)([C@@H](OC(=O)c4ccccc4)[C@H]21)C3(C)C [docetaxel]
potency in paclitaxel resistant PC-3 cells [1]: lose potency
efficacy in PC-3/TxR tumors [2]: lack of efficacy

Kp at 4 h ([3]; brain, 4 h after oral treatment, read-out: Brain/plasma concentration ratio): ~0.2
Brain/plasma concentration ratios over time ([3]; in vivo): remained relatively constant over time
brain penetration ([3]; in vivo): high brain penetration
SMILES: COc1cc(C(=O)c2csc(Nc3ccc4[nH]ccc4c3)n2)cc(OC)c1OC [Compound 55, (2-(1H-indol-5-ylamino)thiazol-4-yl)(3,4,5-trimethoxyphenyl)methanone]

IC50 ([8]; MDA-MB-468, read-out: IC50 (FIG. 37)): 4.61 nM
IC50 ([8]; MDA-MB-468, read-out: IC50, cell viability): 4.61 nM
SMILES: CC(=O)O[C@H]1C(=O)[C@@]2(C)[C@H]([C@H](OC(=O)c3ccccc3)[C@]3(O)C[C@H](OC(=O)[C@H](O)[C@@H](NC(=O)c4ccccc4)c4ccccc4)C(C)=C1C3(C)C)[C@]1(OC(C)=O)CO[C@@H]1C[C@@H]2O [paclitaxel]
body weights and physical activities of mice [4]: slightly decreased
lung metastasis of TNBC [4]: significantly inhibited lung metastasis
reductions in colony formation [5]: 7.4%
relative percentage of colonies [6]: 27.5%
average final tumor weight ([7]; 12.5 mg/kg): 0.38 g
body weight during treatment ([7]; 18 days, paclitaxel 12.5 mg/kg): decreased mice body weight significantly
potency in paclitaxel resistant PC-3 cells [1]: lose potency
spontaneous lung metastasis, mice [9]: all eight mice had no metastasis
average migration rate, scratch assay ([10]; after 24 hours): 13.3%
average migration rate, scratch assay [10, 12]: 14.5%
necrotic area of tumors [11]: 41.5%

SMILES: COc1cc2c(c(OC)c1OC)-c1ccc(OC)c(=O)cc1[C@@H](NC(C)=O)CC2 [colchicine]
reductions in colony formation [5]: 51%
average migration rate, scratch assay ([10]; after 24 hours): 67.3%
average migration rate, scratch assay [10, 12]: 15.8%
